What is called Ki is a measure of affinity in units of concentration, obtained from inhibition or displacement.

Experimental findings from US12391737B2, “Soluble NPY2 receptor agonists” (Boehringer Ingelheim International GmbH, priority 2020, dated 2025) are described below.

The nature of one data set: Solubility determination. The note with it: for Sol6: pH 6; for Sol7: pH 7. The method in brief:
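First, TFA-salt peptide was added to 0.1 M sodium diphosphate (pH 6.4 or 7.0) to 10 mg/ml and shaken 2 h at room temperature. Next, insoluble material was filtered off. Finally, filtrate and control, each 1 mg/ml in 50% acetonitrile, were compared by reversed-phase chromatography.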

For data set [1], the target named is T1, Human Neuropeptide Y2 Receptor (Homo sapiens, UniProt P49146).
T1 construct: purchased CHEMICON HTS066M
T1 sequence (P49146 1-381): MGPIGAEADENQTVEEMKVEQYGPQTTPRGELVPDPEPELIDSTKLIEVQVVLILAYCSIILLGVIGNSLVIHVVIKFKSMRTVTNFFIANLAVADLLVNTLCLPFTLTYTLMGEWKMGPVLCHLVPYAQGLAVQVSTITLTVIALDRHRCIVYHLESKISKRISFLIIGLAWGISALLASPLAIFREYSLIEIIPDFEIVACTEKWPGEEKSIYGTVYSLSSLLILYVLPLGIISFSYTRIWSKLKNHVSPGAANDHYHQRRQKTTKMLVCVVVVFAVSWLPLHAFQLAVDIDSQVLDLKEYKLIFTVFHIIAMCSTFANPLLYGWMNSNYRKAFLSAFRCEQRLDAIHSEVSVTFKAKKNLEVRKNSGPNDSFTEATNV
As to the kind of experiment: Radioligand binding competition assay (RLB). The note with it: Table 3, 125I-PYY(1-36) competition; read-out: Ki. In a few lines: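 Competition binding used membranes expressing the receptor (0.5 μg protein/well) in 50 mM HEPES, 5 mM MgCl2, 1 mM CaCl2, pH 7.4 with 0.2% ovalbumin, incubated 2 h at room temperature with shaking. Bound radioligand was collected by filtration onto PEI-soaked GF/C filters and counted; IC50 from nonlinear sigmoidal fits.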

For `CC(C)CC(=O)N[C@@H](C)C(=O)N1CCC[C@H]1C(=O)N[C@@H](CCC(=O)O)C(=O)N[C@@H](CCCCNC(=O)CCCCCNC(=O)CC[C@H](NC(=O)CCCCCCCCCCCCCCCCC(=O)O)C(=O)O)C(=O)N1CCC[C@H]1C(=O)N[C@@H](CCC(=O)O)C(=O)N[C@@H](CCC(=O)O)C(=O)N[C@@H](CC(C)C)C(=O)N[C@@H](C)C(=O)N[C@H](C(=O)N1CCC[C@H]1C(=O)N[C@@H](CCC(=O)O)C(=O)N[C@@H](CCC(=O)O)C(=O)N[C@@H](CC(C)C)C(=O)N[C@@H](CCC(N)=O)C(=O)N[C@@H](CCCNC(=N)N)C(=O)N[C@@H](Cc1ccc(O)cc1)C(=O)N[C@@H](Cc1ccc(O)cc1)C(=O)N[C@H](C(=O)N[C@@H](CO)C(=O)N[C@@H](CC(C)C)C(=O)N[C@@H](CCCNC(=N)N)C(=O)N[C@@H](Cc1c[nH]cn1)C(=O)N[C@@H](Cc1ccc(O)cc1)C(=O)N[C@@H](Cc1ccc(O)cc1)C(=O)N[C@@H](CC(N)=O)C(=O)N[C@@H](Cc1c[nH]c2ccccc12)C(=O)N[C@@H](CC(C)C)C(=O)N[C@H](C(=O)N[C@@H](CCCNC(=N)N)C(=O)N[C@@H](CCC(N)=O)C(=O)N[C@@H](CCCNC(=N)N)C(=O)N[C@@H](Cc1ccc(O)cc1)C(N)=O)[C@@H](C)O)C(C)C)[C@@H](C)O` [Compound 153, N{alpha-4}-(3-methylbutanoyl)-N{epsilon-7}-(6-[(4S)-4-carboxy-4-(17-carboxyheptadecanamido)butanamido]hexanoyl)-[4A,7K,9E,11L,13T,18Q,22V,28Y,30W,31L]-hPYY(4-36)], in “Solubility determination”, the “Sol6” value is 6.0 mg/mL and the “Sol7” value is 9.5 mg/mL. Besides, the Ki in data set [1] stood at 6.8 nM.
For `CC[C@H](C)[C@H](NC(=O)[C@H](CCC(=O)O)NC(=O)[C@H](CCC(=O)O)NC(=O)[C@@H]1CCCN1C(=O)[C@@H](NC(=O)[C@H](C)NC(=O)[C@H](C)NC(=O)[C@H](CCC(=O)O)NC(=O)[C@H](CCC(=O)O)NC(=O)[C@@H]1CCCN1C(=O)[C@H](CCCCNC(=O)CCCCCNC(=O)CC[C@H](NC(=O)CCCCCCCCCCCCCCCCC(=O)O)C(=O)O)NC(=O)[C@H](CCC(=O)O)NC(=O)[C@@H]1CCCN1C(=O)[C@H](C)NC(=O)CC(C)C)[C@@H](C)O)C(=O)N[C@@H](CCC(N)=O)C(=O)N[C@@H](CCCNC(=N)N)C(=O)N[C@@H](Cc1ccc(O)cc1)C(=O)N[C@@H](Cc1ccc(O)cc1)C(=O)N[C@H](C(=O)N[C@@H](C)C(=O)N[C@@H](CC(C)C)C(=O)N[C@@H](CCCNC(=N)N)C(=O)N[C@@H](Cc1c[nH]cn1)C(=O)N[C@@H](Cc1ccc(O)cc1)C(=O)N[C@@H](Cc1ccc(O)cc1)C(=O)N[C@@H](CC(N)=O)C(=O)N[C@@H](Cc1c[nH]c2ccccc12)C(=O)N[C@@H](CC(C)C)C(=O)N[C@H](C(=O)N[C@@H](CCCNC(=N)N)C(=O)N[C@@H](CCC(N)=O)C(=O)N[C@@H](CCCNC(=N)N)C(=O)N[C@@H](Cc1ccc(O)cc1)C(N)=O)[C@@H](C)O)C(C)C` [Compound 154, N{alpha-4}-(3-methylbutanoyl)-N{epsilon-7}-(6-[(4S)-4-carboxy-4-(17-carboxyheptadecanamido)butanamido]hexanoyl)-[4A,7K,9E,11A,13T,17I,18Q,22V,23A,28Y,30W,31L]-hPYY(4-36)] the same measures were 8.3 mg/mL, above 10.0 mg/mL and 3.71 nM.
Turning to `CC(C)CC(=O)N[C@@H](C)C(=O)N1CCC[C@H]1C(=O)N[C@@H](CCC(=O)O)C(=O)N[C@@H](CCCCNC(=O)CCCCCNC(=O)CC[C@H](NC(=O)CCCCCCCCCCCCCCCCC(=O)O)C(=O)O)C(=O)N1CCC[C@H]1C(=O)N[C@@H](CCC(=O)O)C(=O)N[C@@H](CCC(=O)O)C(=O)N[C@@H](CC(=O)O)C(=O)N[C@@H](C)C(=O)N[C@H](C(=O)N1CCC[C@H]1C(=O)N[C@@H](CCC(=O)O)C(=O)N[C@@H](CCC(=O)O)C(=O)N[C@@H](CC(C)C)C(=O)N[C@@H](CCC(N)=O)C(=O)N[C@@H](CCCNC(=N)N)C(=O)N[C@@H](Cc1ccc(O)cc1)C(=O)N[C@@H](Cc1ccc(O)cc1)C(=O)N[C@H](C(=O)N[C@@H](CO)C(=O)N[C@@H](CC(C)C)C(=O)N[C@@H](CCCNC(=N)N)C(=O)N[C@@H](Cc1c[nH]cn1)C(=O)N[C@@H](Cc1ccc(O)cc1)C(=O)N[C@@H](Cc1ccc(O)cc1)C(=O)N[C@@H](CC(N)=O)C(=O)N[C@@H](Cc1c[nH]c2ccccc12)C(=O)N[C@@H](CC(C)C)C(=O)N[C@@H](CO)C(=O)N[C@@H](CCCNC(=N)N)C(=O)N[C@@H](CCC(N)=O)C(=O)N[C@@H](CCCNC(=N)N)C(=O)N[C@@H](Cc1ccc(O)cc1)C(N)=O)C(C)C)[C@@H](C)O` [Compound 155, N{alpha-4}-(3-methylbutanoyl)-N{epsilon-7}-(6-[(4S)-4-carboxy-4-(17-carboxyheptadecanamido)butanamido]hexanoyl)-[4A,7K,9E,13T,18Q,22V,28Y,30W,31L,32S]-hPYY(4-36)], in the data set “Solubility determination”, the “Sol6” value was above 10.0 mg/mL and the “Sol7” value is above 10.0 mg/mL. The Ki in data set [1] worked out at 7.6 nM.
In the case of `CC[C@H](C)[C@H](NC(=O)[C@H](CCC(=O)O)NC(=O)[C@H](CCC(=O)O)NC(=O)[C@@H]1CCCN1C(=O)[C@H](CCC(=O)O)NC(=O)[C@H](C)NC(=O)[C@H](C)NC(=O)[C@H](CCC(=O)O)NC(=O)[C@H](CCC(=O)O)NC(=O)[C@@H]1CCCN1C(=O)[C@H](CCCCNC(=O)CCCCCNC(=O)CC[C@H](NC(=O)CCCCCCCCCCCCCCCCC(=O)O)C(=O)O)NC(=O)[C@H](CCC(=O)O)NC(=O)[C@@H]1CCCN1C(=O)[C@H](C)NC(=O)CC(C)C)C(=O)N[C@@H](CCC(N)=O)C(=O)N[C@@H](CCCNC(=N)N)C(=O)N[C@@H](Cc1ccc(O)cc1)C(=O)N[C@@H](Cc1ccc(O)cc1)C(=O)N[C@H](C(=O)N[C@@H](C)C(=O)N[C@@H](CC(C)C)C(=O)N[C@@H](CCCNC(=N)N)C(=O)N[C@@H](Cc1c[nH]cn1)C(=O)N[C@@H](Cc1ccc(O)cc1)C(=O)N[C@@H](Cc1ccc(O)cc1)C(=O)N[C@@H](CC(N)=O)C(=O)N[C@@H](Cc1c[nH]c2ccccc12)C(=O)N[C@@H](CC(C)C)C(=O)N[C@H](C(=O)N[C@@H](CCCNC(=N)N)C(=O)N[C@@H](CCC(N)=O)C(=O)N[C@@H](CCCNC(=N)N)C(=O)N[C@@H](Cc1ccc(O)cc1)C(N)=O)[C@@H](C)O)C(C)C` [Compound 156, N{alpha-4}-(3-methylbutanoyl)-N{epsilon-7}-(6-[(4S)-4-carboxy-4-(17-carboxyheptadecanamido)butanamido]hexanoyl)-[4A,7K,9E,11A,13E,17I,18Q,22V,23A,28Y,30W,31L]-hPYY(4-36)], in “Solubility determination”, the “Sol6” value came to 9.8 mg/mL and the “Sol7” value is 9.6 mg/mL. Besides, the Ki in data set [1] was 4.2 nM.
Taken in the same sequence, the figures for `CC(C)CC(=O)N[C@@H](C)C(=O)N1CCC[C@H]1C(=O)N[C@@H](C)C(=O)N[C@@H](CCCCNC(=O)CCCCCNC(=O)CC[C@H](NC(=O)CCCCCCCCCCCCCCCCC(=O)O)C(=O)O)C(=O)N1CCC[C@H]1C(=O)N[C@@H](CCC(=O)O)C(=O)N[C@@H](CCC(=O)O)C(=O)N[C@@H](C)C(=O)N[C@@H](C)C(=O)N[C@@H](CO)C(=O)N1CCC[C@H]1C(=O)N[C@@H](CCC(=O)O)C(=O)N[C@@H](CCC(=O)O)C(=O)N[C@@H](CC(C)C)C(=O)N[C@@H](CCC(N)=O)C(=O)N[C@@H](CCCNC(=N)N)C(=O)N[C@@H](Cc1ccc(O)cc1)C(=O)N[C@@H](Cc1ccc(O)cc1)C(=O)N[C@H](C(=O)N[C@@H](C)C(=O)N[C@@H](CC(C)C)C(=O)N[C@@H](CCCNC(=N)N)C(=O)N[C@@H](Cc1c[nH]cn1)C(=O)N[C@@H](Cc1ccc(O)cc1)C(=O)N[C@@H](Cc1ccc(O)cc1)C(=O)N[C@@H](CC(N)=O)C(=O)N[C@@H](Cc1c[nH]c2ccccc12)C(=O)N[C@@H](CC(C)C)C(=O)N[C@H](C(=O)N[C@@H](CCCNC(=N)N)C(=O)N[C@@H](CCC(N)=O)C(=O)N[C@@H](CCCNC(=N)N)C(=O)N[C@@H](Cc1ccc(O)cc1)C(N)=O)[C@@H](C)O)C(C)C` [Compound 157, N{alpha-4}-(3-methylbutanoyl)-N{epsilon-7}-(6-[(4S)-4-carboxy-4-(17-carboxyheptadecanamido)butanamido]hexanoyl)-[4A,6A,7K,9E,11A,18Q,22V,23A,28Y,30W,31L]-hPYY(4-36)] were 0.0 mg/mL, 0.3 mg/mL and 1.68 nM.
